Values joined by “and” are separate entries in the source; they are usually repeats but may differ in a detail not shown here. Identical values can stand only once. “Also recorded” adds a separate entry of the source.
How the values were obtained:
[1] = Quinoxaline-2-carboxylic acid (Carbadox metabolite) residue in pig muscle (ham, chop), liver and kidney after flumecinol treatment; format: in vivo, pigs; set-up: key to amount of quinoxaline-2-carboxylic acid / quinoxaline-2-carboxylic acid content of the muscle tissue / quinoxaline-2-carboxylic acid content of the liver / quinoxaline-2-carboxylic acid content of the kidney: .0.: no detectable amount; details: for quinoxaline-2-carboxylic acid content of the kidney / quinoxaline-2-carboxylic acid content of the liver / quinoxaline-2-carboxylic acid content of the muscle tissue: average, n = 3; for amount of quinoxaline-2-carboxylic acid: individual animal
Protocol: (§1) Tests were carried out at a large-scale pig farm, where 25 mg/kg of body weight of Carbadox admixed with the fodder of the pigs were administered to pigs having a live weight of 40 kg. From a population fed with this fodder 27 animals, each weighing exactly 40 kg, were selected, by weighing them separately. The selected animals were railed off in a place suitable for further tests. From this time on (zero time) the animals were given the same fodder as before, except Carbadox.
(§2) The 27 animals were divided into three groups as follows:
(§3) Group I: 12 animals (ser. Nos. from 1 to 12) slaughtering: three animals each when starting the experiment (0 time) and on the 1st, 5th and 15th days (positive control group) Group II: 9 amimals (ser. Nos. from 13 to 21) treatment: a single 40 mg/kg of body weight dose of flumecinol at zero time. slaughtering: three animals each on the 1st, 5th and 15th days (group treated with a single dose of flumecinol) Group III: 6 animals (ser. Nos. 22 to 27) treatment: 40 mg/kg of body weight of flumecinol for three days, at zero time and on the 1st and 2nd day slaughtering: three animals each on the 5th and 15th days (group treated with flumecinol three times) Flumecinol is available as a micropellet containing 19.02% of active ingredient. From this and a 1% starch hydrolysate a suspension is prepared, containing 40 mg of flumecinol per 1 ml (dose used for one kg of body weight). The active compound was administered 8 o'clock in the morning, without previous fasting, through a stomach tube, in order to ensure exact conditions for the experiments. The animals were killed and samples were taken from 8 to 11 o'clock in the morning, whereupon the samples were transported into the analytical laboratory within one hour, under cooling.
(§4) Quinoxaline-2-carboxylic acid (a metabolite of Carbadox) was determined in the chop, liver and kidney tissues of three animals from each group. Each muscle and liver sample was subjected to organoleptic examination also (boiling test).
The quantity of quinoxaline-2-carboxylic acid was determined essentially following the method described in the USDA Chemistry Laboratory Guidebook (5007 Determination of Carbadox):
Following the alkaline hydrolysis of the muscle, liver and kidney samples, the hydrolysates were strongly acidified and the quinoxaline-2-carboxylic acid was extracted with ethyl acetate. The pH of the ethyl acetate extract was adjusted to 6 with a citric acid buffer, whereupon the mixture was extracted with benzene. In the next step the acid was esterified with a mixture of n-propanol and sulfuric acid, to yield propyl quinoxaline-2-carboxylate. The quantity of the latter compound was determined (after purification by thin layer chromatography) by gas chromatography. This cumbersome test procedure was always performed together with a […] control sample to which a known amount (0.2 μg-1.0 μg) of quinoxaline-2-carboxylic acid (standard) was added. The percentage of the active ingredient recovered from this sample was taken into account when calculating the residual active substance amount. In this way the error of the process was eliminated.
The test results, if not otherwise indicated, are given in μg/kg.
The quantity of quinoxaline-2-carboxylic acid in the above-specified slaughtering times is shownn in Table 1. The tests were carried out on three animals and Table 1 contains the results obtained on the individual animals. The results were also statistically evaluated for the various sorts of tissues, although in this specific case this was not really necessary, since according to the valid prescriptions the products of animal origin should not contain Carbadox at all, i.e. the limit is zero. Therefore, we considered it more important to determine when the animal tissues become entirely Carbadox-free, than to observe the differences among the tissues of the various groups of animals in the time when they were killed.

[2] = test system: polysubstrate monooxygenase enzyme system of the liver; experiment: Induction of the polysubstrate monooxygenase enzyme system of the liver
[3] = Organoleptic examination (boiling test) of muscle and liver tissues of pigs treated with Carbadox and flumecinol; format: in vivo; set-up: key to visual observation / organoleptic (odor) score: 1: negative; 2: slight strange (indeterminable) odor; 3: some strange (slight medicamentlike) odor; 4: definite strange (more expressed medicament) odor; details: for visual observation / organoleptic (odor) score: individual animal
Protocol: as §1, §2, §3, §4

[4] = one treatment 40 mg/kg, 1st day
[5] = one treatment 40 mg/kg, 1st day, chop
[6] = one treatment 40 mg/kg, 1st day, ham
[7] = one treatment 40 mg/kg, 5th day
[8] = one treatment 40 mg/kg, 5th day, chop
[9] = one treatment 40 mg/kg, 5th day, ham
[10] = one treatment 40 mg/kg, 15th day
[11] = one treatment 40 mg/kg, 15th day, chop
[12] = one treatment 40 mg/kg, 15th day, ham
[13] = one treatment 40 mg/kg, 1st day, liver
[14] = one treatment 40 mg/kg, 5th day, liver
[15] = one treatment 40 mg/kg, 15th day, liver
[16] = three treatments 40 mg/kg, 5th day
[17] = three treatments 40 mg/kg, 5th day, chop
[18] = three treatments 40 mg/kg, 5th day, ham
[19] = three treatments 40 mg/kg, 15th day
[20] = three treatments 40 mg/kg, 15th day, chop
[21] = three treatments 40 mg/kg, 15th day, ham
[22] = three treatments 40 mg/kg, 5th day, liver
[23] = three treatments 40 mg/kg, 15th day, liver

Structure (SMILES): CCC(O)(c1ccccc1)c1cccc(C(F)(F)F)c1 (centres unmarked) [flumecinol, 1-(3-trifluoromethylphenyl)-1-(phenyl)-propan-1-ol]
- residue in muscle tissues and kidney ([1]; 40 mg/kg daily for three subsequent days, 5th day): free of residue on the 5th day
- residue in kidney (so in the source) ([1]; 40 mg/kg daily for three subsequent days, 15th day): free of residue on the 15th day
- residual quinoxaline-2-carboxylic acid in muscle ([1]; 5th day after termination of Carbadox, one or three treatments): no residual quinoxaline-2-carboxylic acid could be detected
- residual Carbadox in muscle vs. control ([1]; Group II, one dose, 24 hours after treatment): significantly lower than in the control animals slaughtered at the same time
- residue in the kidney ([1]; addition in three subsequent days, kidney, 5th and 15th day): no residue was detected either on the 5th or on the 15th day
- quinoxaline-2-carboxylic acid elimination from the muscle tissue ([1]; flumecinol treatment, muscle): significant acceleration of quinoxaline-2-carboxylic acid elimination from the muscle tissue
- quinoxaline-2-carboxylic acid content of the kidney [1, 4]: 30.67 µg/kg
- quinoxaline-2-carboxylic acid content of the liver [1, 4]: 64.67 µg/kg
- quinoxaline-2-carboxylic acid content of the muscle tissue [1, 5]: 5.33 µg/kg
- quinoxaline-2-carboxylic acid content of the muscle tissue [1, 6]: 1.33 µg/kg
- quinoxaline-2-carboxylic acid content of the muscle tissue ([1]; one treatment 40 mg/kg, 1st day, total): 3.33 µg/kg
- quinoxaline-2-carboxylic acid content of the kidney [1, 7]: 10.00 µg/kg
- quinoxaline-2-carboxylic acid content of the liver [1, 7]: 12.00 µg/kg
- quinoxaline-2-carboxylic acid content of the muscle tissue [1, 8]: .0.
- quinoxaline-2-carboxylic acid content of the muscle tissue [1, 9]: .0.
- quinoxaline-2-carboxylic acid content of the muscle tissue ([1]; one treatment 40 mg/kg, 5th day, total): .0.
- quinoxaline-2-carboxylic acid content of the kidney [1, 10]: .0.
- quinoxaline-2-carboxylic acid content of the liver [1, 10]: 7.33 µg/kg
- quinoxaline-2-carboxylic acid content of the muscle tissue [1, 11]: .0.
- quinoxaline-2-carboxylic acid content of the muscle tissue [1, 12]: .0.
- quinoxaline-2-carboxylic acid content of the muscle tissue ([1]; one treatment 40 mg/kg, 15th day, total): .0.
- amount of quinoxaline-2-carboxylic acid [1, 5]: 4 µg/kg and 6 µg/kg
- amount of quinoxaline-2-carboxylic acid [1, 6]: 4 µg/kg
- amount of quinoxaline-2-carboxylic acid ([1]; one treatment 40 mg/kg, 1st day, ham, symbol): .0.
- amount of quinoxaline-2-carboxylic acid ([1]; one treatment 40 mg/kg, 1st day, kidney): 38 µg/kg and 30 µg/kg and 24 µg/kg
- amount of quinoxaline-2-carboxylic acid [1, 13]: 58 µg/kg and 64 µg/kg and 72 µg/kg
- amount of quinoxaline-2-carboxylic acid [1, 8]: .0.
- amount of quinoxaline-2-carboxylic acid [1, 9]: .0.
- amount of quinoxaline-2-carboxylic acid ([1]; one treatment 40 mg/kg, 5th day, kidney): 10 µg/kg and 8 µg/kg and 12 µg/kg
- amount of quinoxaline-2-carboxylic acid [1, 14]: 10 µg/kg and 12 µg/kg and 14 µg/kg
- amount of quinoxaline-2-carboxylic acid [1, 11]: .0.
- amount of quinoxaline-2-carboxylic acid [1, 12]: .0.
- amount of quinoxaline-2-carboxylic acid ([1]; one treatment 40 mg/kg, 15th day, kidney): .0.
- amount of quinoxaline-2-carboxylic acid [1, 15]: 8 µg/kg and 6 µg/kg
- metabolite residue in liver ([1]; single 40 mg/kg dose, liver, 15th day, 40 mg/kg): can be detected even on the 15th day; also recorded: could be still detected on the 15th day
- amount of quinoxaline-2-carboxylic acid in liver, decrease ([1]; single 40 mg/kg dose, liver, each measuring point): significant decrease in the amount of quinoxaline-2-carboxylic acid at each measuring point
- residue in the kidney vs. control ([1]; single dose, kidney, 1st and 5th days): essentially identical with the values obtained in the control group
- residue in the kidney ([1]; single dose, kidney, 15th day): no reside can be detected
- metabolite residue in liver, time of detection ([1]; three subsequent treatments, liver): a metabolite residue can be identified on the 5th day only
- metabolite residue in liver vs. control and single dose ([1]; three subsequent treatments, liver, 5th day): substantially lower amount than in the control animals or in the group treated with a single dose of flumecinol
- quinoxaline-2-carboxylic acid content of the kidney [1, 16]: .0.
- quinoxaline-2-carboxylic acid content of the liver [1, 16]: 6.00 µg/kg
- quinoxaline-2-carboxylic acid content of the muscle tissue [1, 17]: .0.
- quinoxaline-2-carboxylic acid content of the muscle tissue [1, 18]: .0.
- quinoxaline-2-carboxylic acid content of the muscle tissue ([1]; three treatments 40 mg/kg, 5th day, total): .0.
- quinoxaline-2-carboxylic acid content of the kidney [1, 19]: .0.
- quinoxaline-2-carboxylic acid content of the liver [1, 19]: .0.
- quinoxaline-2-carboxylic acid content of the muscle tissue [1, 20]: .0.
- quinoxaline-2-carboxylic acid content of the muscle tissue [1, 21]: .0.
- quinoxaline-2-carboxylic acid content of the muscle tissue ([1]; three treatments 40 mg/kg, 15th day, total): .0.
- amount of quinoxaline-2-carboxylic acid [1, 17]: .0.
- amount of quinoxaline-2-carboxylic acid [1, 18]: .0.
- amount of quinoxaline-2-carboxylic acid ([1]; three treatments 40 mg/kg, 5th day, kidney): .0.
- amount of quinoxaline-2-carboxylic acid [1, 22]: 4 µg/kg and 6 µg/kg and 8 µg/kg
- amount of quinoxaline-2-carboxylic acid [1, 20]: .0.
- amount of quinoxaline-2-carboxylic acid [1, 21]: .0.
- amount of quinoxaline-2-carboxylic acid ([1]; three treatments 40 mg/kg, 15th day, kidney): .0.
- amount of quinoxaline-2-carboxylic acid [1, 23]: .0.
- induction of the polysubstrate monooxygenase enzyme system [2]: specific inductor of the polysubstrate monooxygenase enzyme system
- unpleasant odor released in the tissues by Carbadox administration ([3]; flumecinol treatment): eliminates the unpleasant odor
- visual observation / organoleptic (odor) score [3, 5]: 1
- visual observation / organoleptic (odor) score [3, 6]: 1
- visual observation / organoleptic (odor) score [3, 13]: 3
- visual observation / organoleptic (odor) score [3, 8]: 1
- visual observation / organoleptic (odor) score [3, 9]: 1
- visual observation / organoleptic (odor) score [3, 14]: 2
- visual observation / organoleptic (odor) score [3, 11]: 1
- visual observation / organoleptic (odor) score [3, 12]: 1
- visual observation / organoleptic (odor) score [3, 15]: 1
- elimination of flumecinol from the tissue of pigs ([3]; pigs): rapidly eliminated from the tissue of pigs
- undesired effects detected organoleptically ([3]; pigs): no undesired effects which could be detected organoleptically
- visual observation / organoleptic (odor) score [3, 17]: 1
- visual observation / organoleptic (odor) score [3, 18]: 1
- visual observation / organoleptic (odor) score [3, 22]: 1
- visual observation / organoleptic (odor) score [3, 20]: 1
- visual observation / organoleptic (odor) score [3, 21]: 1
- visual observation / organoleptic (odor) score [3, 23]: 1

— US4659712A, “Fodder additive and a process for the preparation” (Richter Gedeon Vegyeszeti Gyar Rt., priority 1984, dated 1987)
